Data reported in patent US20130004504A1, “METHOD OF MODULATING PHENYLALANINE HYDROXYLASE STRUCTURE AND FUNCTION” (Fox Chase Cancer Center, priority 2011, published 2013).
Read-outs that look alike come from different tables or passages of the source. Values belong to the molecule of their own block, whether it stands above or below them.

How the values were obtained:
PAH = biological target: T1, PAH (Rattus norvegicus, UniProt P04176); settings: cited from earlier work
T1 sequence (P04176 1-453): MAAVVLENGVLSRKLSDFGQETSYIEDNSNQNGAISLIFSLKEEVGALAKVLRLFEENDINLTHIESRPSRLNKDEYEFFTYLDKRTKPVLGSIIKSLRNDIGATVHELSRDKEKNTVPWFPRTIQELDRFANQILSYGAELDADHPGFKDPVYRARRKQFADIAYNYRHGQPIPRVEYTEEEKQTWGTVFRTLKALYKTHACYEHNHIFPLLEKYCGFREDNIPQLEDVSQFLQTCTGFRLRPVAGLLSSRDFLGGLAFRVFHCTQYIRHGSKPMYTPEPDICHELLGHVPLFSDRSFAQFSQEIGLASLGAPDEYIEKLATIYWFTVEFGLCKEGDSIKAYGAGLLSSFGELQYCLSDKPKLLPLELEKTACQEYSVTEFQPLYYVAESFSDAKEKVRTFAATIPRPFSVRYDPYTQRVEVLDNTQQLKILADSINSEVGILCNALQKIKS

rat PAH [1] = biological target: T2, rat PAH (Rattus norvegicus, UniProt P04176); assay: SEC of purified rat PAH (Superdex 200); settings: Phe in running buffer (FIG. 7D)
T2 construct: expression vectors for full length untagged rat and human PAH from Prof; P. Fitzpatrick; made in house
T2 sequence (P04176 1-453): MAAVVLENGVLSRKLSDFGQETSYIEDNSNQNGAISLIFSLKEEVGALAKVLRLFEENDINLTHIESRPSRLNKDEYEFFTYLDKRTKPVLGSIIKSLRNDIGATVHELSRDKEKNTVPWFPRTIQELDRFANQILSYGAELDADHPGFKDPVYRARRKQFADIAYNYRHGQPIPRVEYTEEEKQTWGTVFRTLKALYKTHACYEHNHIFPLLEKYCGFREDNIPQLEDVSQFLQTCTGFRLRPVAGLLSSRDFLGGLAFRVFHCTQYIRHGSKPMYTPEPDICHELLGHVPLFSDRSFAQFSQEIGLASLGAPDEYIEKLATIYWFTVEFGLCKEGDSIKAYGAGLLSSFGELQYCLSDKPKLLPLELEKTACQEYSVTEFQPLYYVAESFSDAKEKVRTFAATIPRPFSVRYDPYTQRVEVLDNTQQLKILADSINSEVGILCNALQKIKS
Method: (§1) FIG. 7 represents preliminary results on purified mammalian PAH. […] Full length human PAH, cleaved from an N-terminal MBP fusion construct, runs at a dimer:tetramer ratio of ˜2:1 on a calibrated Superdex-200 column. With 1 mM Phe added to the running buffer, this ratio is shifted to ˜1:1. Buffers contain 125 mM KCl, which is known to stabilize the tetramer. FIG. 7B represents preliminary kinetic studies on purified rat PAH, monitoring tyrosine fluorescence, showing “order of addition” effects at 300 μM Phe and 75 μM BH4. […] FIG. 7E is a full length rat PAH ([…]), run on a 1 ml HiTrap Q column in 30 mM Tris-HCl with a KCl gradient (B=400 mM KCl). […] FIG. 7F is native PhastGel Western blot showing the effects of ligands on the rat PAH quaternary structure equilibrium (overnight, RT, ˜1 mg/ml). Lane 1—as purified; Lane 2—1 mM Phe; Lane 3—50 μM Phe; Lane 4—75 μM BH4; Lane 5, 50 μPhe+75 μM BH4.
(§2) With regard to the oligomeric equilibrium, rat PAH (in 15% glycerol) is found to be predominantly tetrameric by both native PAGE and SEC (FIGS. 7C & 7D). […] Coupled with the SEC results in FIG. 7D, this illustrates that IEC can be used to separate two tetramers, 4mer and 4mer*.

rat PAH [2] = biological target: T2, rat PAH; assay: Ion exchange chromatography of rat PAH (HiTrap Q, KCl gradient); settings: 1 mM Phe in the elution buffer, 30 mM Tris-HCl, KCl gradient (FIG. 7E)
Method: as §1, §2

rat PAH [3] = biological target: T2, rat PAH; assay: Native PAGE (PhastGel Western blot) of rat PAH quaternary structure equilibrium; settings: ~1 mg/ml rat PAH, overnight, RT; 1 mM or 50 μM Phe, 75 μM BH4
Method: as §1, §2

[4] = biological target: the molecule itself; assay: SEC on calibrated Superdex-200, buffer with 125 mM KCl, no Phe; self-association of PAH subunits
Method: as §1

[5] = biological target: the molecule itself; assay: SEC on calibrated Superdex-200, buffer with 125 mM KCl and 1 mM Phe; self-association of PAH subunits
Method: as §1

[6] = biological target: the molecule itself; assay: SEC on Superdex 200 (FIG. 7D); self-association

Molecule: C[C@H](O)[C@H](O)[C@H]1CNc2nc(N)[nH]c(=O)c2N1 [BH4, tetrahydrobiopterin]
Kd (PAH; high-activity forms of PAH, read-out: Kd, binding to the high-activity forms of PAH): ~14 µM
Kd (PAH; low-activity form(s) of PAH, read-out: Kd, binding to the low-activity form(s) of PAH): ~0.1 µM

effect on tetramer predominance by SEC (rat PAH [1]): not altered
effect on IEC elution profile (rat PAH [2]): dramatically alters the elution profile
Molecule: N[C@@H](Cc1ccccc1)C(=O)O [Phe, phenylalanine]
effect on distribution of PAH quaternary structure isoforms by native PAGE (rat PAH [3]): alters the distribution of PAH quaternary structure isoforms

B1: Full length human phenylalanine hydroxylase (PAH), cleaved from an N-terminal MBP fusion construct (enzyme, UniProt P00439 1-452, looked up)
chain: MSTAVLENPGLGRKLSDFGQETSYIEDNCNQNGAISLIFSLKEEVGALAKVLRLFEENDVNLTHIESRPSRLKKDEYEFFTHLDKRSLPALTNIIKILRHDIGATVHELSRDKKKDTVPWFPRTIQELDRFANQILSYGAELDADHPGFKDPVYRARRKQFADIAYNYRHGQPIPRVEYMEEEKKTWGTVFKTLKSLYKTHACYEYNHIFPLLEKYCGFHEDNIPQLEDVSQFLQTCTGFRLRPVAGLLSSRDFLGGLAFRVFHCTQYIRHGSKPMYTPEPDICHELLGHVPLFSDRSFAQFSQEIGLASLGAPDEYIEKLATIYWFTVEFGLCKQGDSIKAYGAGLLSSFGELQYCLSEKPKLLPLELEKTAIQNYTVTEFQPLYYVAESFNDAKEKVRNFAATIPRPFSVRYDPYTQRIEVLDNTQQLKILADSINSEIGILCSALQKIK
notes: mature; also called human PAH
dimer:tetramer ratio [4]: ~2 dimer:tetramer ratio (x:1)
dimer:tetramer ratio [5]: ~1 dimer:tetramer ratio (x:1)

B2: Full length untagged rat phenylalanine hydroxylase (PAH), purified by the Shiman affinity method (enzyme, UniProt P04176 2-453, looked up)
chain: AAVVLENGVLSRKLSDFGQETSYIEDNSNQNGAISLIFSLKEEVGALAKVLRLFEENDINLTHIESRPSRLNKDEYEFFTYLDKRTKPVLGSIIKSLRNDIGATVHELSRDKEKNTVPWFPRTIQELDRFANQILSYGAELDADHPGFKDPVYRARRKQFADIAYNYRHGQPIPRVEYTEEEKQTWGTVFRTLKALYKTHACYEHNHIFPLLEKYCGFREDNIPQLEDVSQFLQTCTGFRLRPVAGLLSSRDFLGGLAFRVFHCTQYIRHGSKPMYTPEPDICHELLGHVPLFSDRSFAQFSQEIGLASLGAPDEYIEKLATIYWFTVEFGLCKEGDSIKAYGAGLLSSFGELQYCLSDKPKLLPLELEKTACQEYSVTEFQPLYYVAESFSDAKEKVRTFAATIPRPFSVRYDPYTQRVEVLDNTQQLKILADSINSEVGILCNALQKIKS
notes: mature; Homo-oligomer found predominantly as tetramer, with some dimer; also called rat PAH
binding result [6]: binds
